For assay [1], the system named is CIA-induced rheumatoid arthritis model. The assay can be described thus: CIA-induced rheumatoid arthritis model. The conditions noted are these: QD, Model 12.31 ± 2.97, Mean ± SD, n = 7. In kind it is in vivo, DBA/1J mice. The procedure:
1. DBA/1J mice, male, SPF grade, were pre-acclimatized in the animal facility for one week. 2. On day 1, for the primary immunization, 2 mg/mL bovine type II collagen was mixed thoroughly with an equal volume of complete Freund's adjuvant on ice using a homogenizer until fully emulsified. 100 μL of the collagen emulsion (final concentration 1 mg/mL) was intradermally injected at 2 cm from the base of the mouse tail. Medical iodophor was used to disinfect the tail after injection to prevent tail necrosis, which was conducted for 3 consecutive days. 3. On day 21, bovine type II collagen solution was thoroughly mixed and emulsified with an equal volume of Freund's incomplete adjuvant, using the same method as the primary immunization. 4. On day 26, LPS was administered intraperitoneally at a dose of 50 μg/animal to induce disease. 5. On day 28, the affected mice were scored according to Table 33 and the diameter of their ankle joints was measured. Mice were randomly grouped and treated with medication based on their scores and ankle diameter.

In assay [2] the test system is IMQ psoriasis model. Kind of assay: IMQ (imiquimod)-induced psoriasis model. In kind it is in vivo, BALB/c mice. The conditions noted are these: QD, Mean ± SD, n = 7; for PASI Score d 6: Model 8.85 ± 1.66; for ΔSkin Thickness Change (μm) d 6: Model 80.95 ± 6.16.

Each structure is given as a SMILES string.

For the compound `CN(C)c1cc2nn([C@H]3CC[C@H](CN4CC[C@@H](n5cc6cc(C7CCC(=O)NC7=O)c(F)cc6n5)[C@@H](F)C4)CC3)cc2cc1NC(=O)c1cnn2cccnc12` (some centres unmarked) [TM-135], the entries for the “DAI Score d 42” value in assay [1] (15 mg/kg) and in assay [1] (45 mg/kg) were 11.17 ± 2.36 and 9.60 ± 3.33, respectively.

As for `CN(C)c1cc2nn([C@H]3CC[C@H](CN4C[C@@H](n5cc6cc(N7CCC(=O)NC7=O)ccc6n5)[C@@H](F)C4)CC3)cc2cc1NC(=O)c1cnn2cccnc12` [TM-205], the “PASI Score d 6” value in assay [2] (3 mg/kg) was determined as 7.29 ± 1.99; in assay [2] (10 mg/kg) it was 6.75 ± 1.28; in assay [2] (30 mg/kg), 4.84 ± 0.80. Further, the “ΔSkin Thickness Change (μm) d 6” value in assay [2] (3 mg/kg) turned out to be 65.71 ± 10.23 μm; in assay [2] (10 mg/kg), 52.62 ± 9.59 μm; in assay [2] (30 mg/kg), 53.10 ± 12.95 μm.

For `CN(C)c1cc2nn([C@H]3CC[C@H](CN4CCC(n5cc6c(F)cc(N7CCC(=O)NC7=O)cc6n5)CC4)CC3)cc2cc1NC(=O)c1cnn2cccnc12` [TM-174], the “PASI Score d 6” value in assay [2] (3 mg/kg) is 6.69 ± 1.07; in assay [2] (10 mg/kg), 7.31 ± 1.87; in assay [2] (30 mg/kg), 4.38 ± 1.24. For the same compound, the entries for the “ΔSkin Thickness Change (μm) d 6” value in assay [2] (3 mg/kg), in assay [2] (10 mg/kg) and in assay [2] (30 mg/kg) were 58.10 ± 17.31 μm, 59.29 ± 18.23 μm and 43.81 ± 16.66 μm, respectively.

The values are drawn from US20260216348A1, “IRAK DEGRADATION AGENT AND USE THEREOF” (Increland, priority 2023, published 2026).
